In test [1] the test system is platelet aggregation caused by ADP in platelet-rich plasma (PRP). The experiment in a line: Test Example 1: in vitro platelet aggregation inhibitory effect. Type of test: cell-based, rat (male Sprague-Dawley). The following applies: 10 μg/ml test compound; rat PRP; ADP final concentration 10 μM; maximum platelet aggregation ratio. The method, then: Male Sprague-Dawley rats (8-week old, Japan SLC, Inc.), 3 to 4 animals per group, were used for the test. The platelet aggregation was measured with an automatic platelet aggregometer (MCM Hema Tracer 313M, MC Medical, Inc.) by a partially modified method of Born et al., The Journal of Physiology, Vol. 168, Section 178 (1963). 6.3 ml of blood was sampled from the ventral aorta of a rat anesthetized with pentobarbital (40 mg/kg) using 3.8% (w/v) sodium citrate solution (0.7 ml) as an anticoagulant. The obtained blood containing citrate was centrifuged (230 g, 15 minutes, room temperature) to separate a platelet-rich plasma (hereinbelow abbreviated as PRP). The blood after the separation of PRP was further centrifuged (2,000 g, 10 minutes, room temperature) to separate a platelet-poor plasma (hereinbelow abbreviated as PPP). After the number of blood platelet in PRP was measured with a multi-item automatic blood corpuscle counter (KX-21N, Sysmex Corporation), PPP was added thereto to adjust the blood platelet count to 5×10^8/ml. After PRP (239 μl) was pipetted into cuvettes, test compounds (1 μl) dissolved in dimethylsulfoxide (DMSO) were added to PRP and the cuvettes were set in the automatic platelet aggregometer. DMSO (1 μl) was added in place of the test compounds for the control group. After preliminary warming (37° C.) for 1.5 minutes, 10 μl of adenosine 5′-diphosphate (ADP) solution (final concentration at 10 μM) was added to cause platelet aggregation. Platelet aggregation was measured for 5 minutes and the maximum platelet aggregation ratio was determined.

Test [2] concerns platelet aggregation caused by ADP in platelet-rich plasma (PRP) after oral administration. Nature of the test: Test Example 2: ex vivo platelet aggregation inhibitory effect. Particulars: 4 hours before blood sampling, rat PRP, ADP final concentration 3 μM, maximum platelet aggregation ratio; for inhibition at 10 mg/kg: 10 mg/kg orally, read-out: Test Example 1 (% inhibition) 10 mg/kg. The class given is in vivo, rat (male Sprague-Dawley). The method, then: Male Sprague-Dawley rats (8-week old, Japan SLC, Inc.), 3 to 4 animals per group, were used for the test. The platelet aggregation was measured with an automatic platelet aggregometer (MCM Hema Tracer 313M, MC Medical, Inc.) by a partially modified method of Bom et al., The Journal of Physiology, Vol. 168, Section 178 (1963). Test compounds suspended in 5% Arabian gum solution or 10% dimethylacetamide/64% polyethylene glycol 400/16% Tween 80 solution were orally administered in a dose ratio of 1 mL/kg 4 hours before blood sampling. Vehicle was orally administered 4 hours in a dose ratio of 1 mL/kg before the sampling of the blood for the control group. 6.3 ml of blood was sampled from the ventral aorta of a rat anesthetized with pentobarbital (40 mg/kg) using 3.8% (w/v) sodium citrate solution (0.7 ml) as an anticoagulant. The obtained blood containing citrate was centrifuged (230 g, 15 minutes, room temperature) to separate PRP. The blood after the separation of PRP was further centrifuged (2,000 g, 10 minutes, room temperature) to separate PPP. After the number of blood platelet in PRP was measured with a multi-item automatic blood corpuscle counter (KX-21N, Sysmex Corporation), PPP was added thereto to adjust the blood platelet to 5×10^8/ml. After PRP (240 μl) was pipetted into cuvettes, the cuvettes were set in the automatic platelet aggregometer. After preliminary warming (37° C.) for 1.5 minutes, 10 μl of ADP solution (final concentration 3 μM) was added to cause platelet aggregation. Platelet aggregation was measured for 5 minutes and the maximum platelet aggregation ratio was determined.

Structures can show the parent of a compound that is named as a salt.

As to `O=C(O)CN1CCN(C/C=C2\CN(C(C(=O)C3CC3)c3ccccc3F)CCC2S)CC1=O` (centres unmarked) [Example 15, (E)-3-{2-[4-(Carboxymethyl)-3-oxopiperazin-1-yl]ethylidene}-1-[2-cyclopropyl-1-(2-fluorophenyl)-2-oxoethyl]-4-sulfanylpiperidine dihydrochloride], the inhibition at 10 µg/mL in test [1] amounted to 90%.
Consider `COC(=O)CCN1CCN(C/C=C2\CN(C(C(=O)C3CC3)c3ccccc3F)CCC2S)CC1=O` (centres unmarked) [Example 18, (E)-1-[2-Cyclopropyl-1-(2-fluorophenyl)-2-oxoethyl]-3-(2-{4-[2-(methoxycarbonyl)ethyl]-3-oxopiperazin-1-yl}ethylidene)-4-sulfanylpiperidine dihydrochloride], for which the inhibition at 10 µg/mL in test [1] was determined as 73%. Besides, the inhibition at 10 mg/kg in test [2] worked out at 74%.
Take `O=C(O)CCN1CCN(C/C=C2\CN(C(C(=O)C3CC3)c3ccccc3F)CCC2S)CC1=O` (centres unmarked) [Example 19, (E)-3-(2-{4-[2-(Carboxyethyl)]-3-oxopiperazin-1-yl}ethylidene)-1-[2-cyclopropyl-1-(2-fluorophenyl)-2-oxoethyl]-4-sulfanylpiperidine dihydrochloride]: the inhibition at 10 µg/mL in test [1] was determined as 77%. For the same compound, the inhibition at 10 mg/kg in test [2] worked out at 60%.
The like results for `CCOC(=O)CCN1CCN(C/C=C2\CN(C(C(=O)C3CC3)c3ccccc3F)CCC2S)C(=O)C1` (centres unmarked) [Example 22, (E)-1-[2-Cyclopropyl-1-(2-fluorophenyl)-2-oxoethyl]-3-(2-{4-[2-(ethoxycarbonyl)ethyl]-2-oxopiperazin-1-yl}ethylidene)-4-sulfanylpiperidine dihydrochloride] were, in that order, 67% and 79%.
The like results for `O=C(O)CCN1CCN(C/C=C2\CN(C(C(=O)C3CC3)c3ccccc3F)CCC2S)C(=O)C1` (centres unmarked) [Example 23, (E)-3-(2-{4-[2-(Carboxyethyl)]-2-oxopiperazin-1-yl}ethylidene)-1-[2-cyclopropyl-1-(2-fluorophenyl)-2-oxoethyl]-4-sulfanylpiperidine dihydrochloride] were, in that order, 77% and 72%.
`O=C(O)c1cnn(C/C=C2\CN(C(C(=O)C3CC3)c3ccccc3F)CCC2S)c1` (centres unmarked) [Example 44, (E)-3-[2-(4-Carboxy-1H-pyrazol-1-yl)ethylidene]-1-[2-cyclopropyl-1-(2-fluorophenyl)-2-oxoethyl]-4-sulfanylpiperidine hydrochloride]: in test [1], the inhibition at 10 µg/mL was 81%. The inhibition at 3 mg/kg in test [2] (3 mg/kg orally, read-out: Test Example 1 (% inhibition) 3 mg/kg) came to 61%.
On to `CCOC(=O)c1cn(C/C=C2\CN(C(C(=O)C3CC3)c3ccccc3F)CCC2S)nn1` (centres unmarked) [Example 50, (E)-1-[2-Cyclopropyl-1-(2-fluorophenyl)-2-oxoethyl]-3-[2-(4-ethoxycarbonyl-1H-1,2,3-triazol-1-yl)ethylidene]-4-sulfanylpiperidine hydrochloride], for which the inhibition at 10 µg/mL in test [1] came out at 79%.
The same measure, in the same setting: with `O=C(O)c1cn(C/C=C2\CN(C(C(=O)C3CC3)c3ccccc3F)CCC2S)nn1` (centres unmarked) [Example 51, (E)-3-[2-(4-Carboxy-1H-1,2,3-triazol-1-yl)ethylidene]-1-[2-cyclopropyl-1-(2-fluorophenyl)-2-oxoethyl]-4-sulfanylpiperidine hydrochloride] the figure was 81%.
With `O=C(O)Cc1cnn(C/C=C2\CN(C(C(=O)C3CC3)c3ccccc3F)CCC2S)c1` (centres unmarked) [Example 74, (E)-3-{2-[4-(Carboxymethyl)-1H-pyrazol-1-yl]ethylidene}-1-[2-cyclopropyl-1-(2-fluorophenyl)-2-oxoethyl]-4-sulfanylpiperidine hydrochloride], the inhibition at 10 µg/mL in test [1] was found to be 80%. The inhibition at 10 mg/kg in test [2] stood at 100%.
Consider `CN(C/C=C1\CN(C(C(=O)C2CC2)c2ccccc2F)CCC1S)CC(=O)O` (centres unmarked) [Example 83, (E)-3-{2-[N-(Carboxymethyl)-N-methylamino]ethylidene}-1-[2-cyclopropyl-1-(2-fluorophenyl)-2-oxoethyl]-4-sulfanylpiperidine dihydrochloride], for which the inhibition at 10 µg/mL in test [1] is 68%.
With `CN(C/C=C1/CN(C(C(=O)C2CC2)c2ccccc2F)CCC1S)CC(=O)O` (centres unmarked) [Example 86, (Z)-3-{2-[N-(Carboxymethyl)-N-methylamino]ethylidene}-1-[2-cyclopropyl-1-(2-fluorophenyl)-2-oxoethyl]-4-sulfanylpiperidine dihydrochloride], in test [1], the inhibition at 10 µg/mL was found to be 82%.
Same read-out and setting: then `CN(C/C=C1/CN(C(C(=O)C2CC2)c2ccccc2F)CCC1S)CCCC(=O)O` (centres unmarked) [Example 91, (Z)-3-(2-{N-[3-(Carboxy)propyl]-N-methylamino}ethylidene)-1-[2-cyclopropyl-1-(2-fluorophenyl)-2-oxoethyl]-4-sulfanylpiperidine dihydrochloride], with 74%.
On to `O=C(O)c1cnn(C/C=C2/CN(C(C(=O)C3CC3)c3ccccc3F)CCC2S)c1` (centres unmarked) [Example 111, (Z)-3-[2-(4-Carboxy-1H-pyrazol-1-yl)ethylidene]-1-[2-cyclopropyl-1-(2-fluorophenyl)-2-oxoethyl]-4-sulfanylpiperidine hydrochloride], for which, in test [1], the inhibition at 10 µg/mL turned out to be 82%. The inhibition at 10 mg/kg in test [2] came out at 82%.

These data come from patent US20090306059A1, “CYCLIC AMINE DERIVATIVE HAVING SUBSTITUTED ALKYL GROUP” (priority 2005, published 2009).
